The source of these data is ChEMBL document CHEMBL3769394, “The Importance of Being Me: Magic Methyls, Methyltransferase Inhibitors, and the Discovery of Tazemetostat” (J Med Chem, 2016).

Each structure is given as a SMILES string. Calls of active or inactive are those of the source. The rule behind the calls is not given here. A value given as a limit tells only on which side of the number the result lay.

Data set [1] concerns the target T1, Histone-lysine N-methyltransferase EZH2 (Homo sapiens, UniProt Q15910). The data set is described as follows: Inhibition of methyltransferase activity of human EZH2 using chicken oligonucleosomes as substrate by pull down assay.
Target sequence in this assay (Q15910 whole entry): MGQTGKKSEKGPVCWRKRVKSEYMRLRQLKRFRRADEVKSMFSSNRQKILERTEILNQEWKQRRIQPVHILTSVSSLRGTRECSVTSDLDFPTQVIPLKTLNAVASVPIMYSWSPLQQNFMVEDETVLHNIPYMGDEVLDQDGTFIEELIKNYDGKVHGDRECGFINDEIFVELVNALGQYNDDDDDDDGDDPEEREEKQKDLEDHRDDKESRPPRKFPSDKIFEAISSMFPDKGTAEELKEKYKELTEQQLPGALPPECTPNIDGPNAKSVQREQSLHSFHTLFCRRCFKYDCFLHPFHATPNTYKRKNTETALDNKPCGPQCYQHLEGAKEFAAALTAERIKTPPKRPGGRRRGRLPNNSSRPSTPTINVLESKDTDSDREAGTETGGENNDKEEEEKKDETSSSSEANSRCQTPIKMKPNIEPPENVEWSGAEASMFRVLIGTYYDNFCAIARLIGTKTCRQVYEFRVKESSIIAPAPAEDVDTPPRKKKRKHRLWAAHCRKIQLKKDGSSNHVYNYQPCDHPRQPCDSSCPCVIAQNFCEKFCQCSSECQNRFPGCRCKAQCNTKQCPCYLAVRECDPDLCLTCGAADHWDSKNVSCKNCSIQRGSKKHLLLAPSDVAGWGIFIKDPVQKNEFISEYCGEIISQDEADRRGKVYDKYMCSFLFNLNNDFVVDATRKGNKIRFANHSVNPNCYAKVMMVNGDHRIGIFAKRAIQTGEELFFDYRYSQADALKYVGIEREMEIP
Data set [2] is described as follows: Oral bioavailability in mouse at 10 mg/kg by LC-MS/MS analysis. It counts as ADME, organism-based. As to conditions: in vivo.
Data set [3] in a line: AUC in mouse at 2 mg/kg, iv and 10 mg/kg, po by LC-MS/MS analysis. It counts as ADME, organism-based. As to conditions: in vivo.
Data set [4] is described as follows: Clearance in mouse at 2 mg/kg, iv and 10 mg/kg, po by LC-MS/MS analysis. In kind it is ADME, organism-based. To be noted: in vivo.
Data set [5] in a line: Volume of distribution at steady state in mouse at 2 mg/kg, iv and 10 mg/kg, po by LC-MS/MS analysis. In kind it is ADME, organism-based. As to conditions: in vivo, read-out: Vdss.
A short description of data set [6]: Aqueous solubility of the compound at pH 7. In kind it is physicochemical.
Data set [7] deals with T1, Histone-lysine N-methyltransferase EZH2. Put plainly: Inhibition of methyltransferase activity of human EZH2 using chicken oligonucleosomes as substrate up to 10 uM by pull down assay.
Target sequence in this assay (Q15910 whole entry, looked up): as the sequence (Q15910 whole entry) above

For orientation: IC50 means the concentration that inhibits the measured activity by half. Regarding `Cc1cc(C)c(CNC(=O)c2cccc3c2nnn3C(C)C)c(=O)[nH]1`, the IC50 in data set [1] was over 50000 nM.
By bioavailability is commonly meant dose-corrected exposure relative to a reference, in per cent. Low readings indicate little systemic uptake, high ones much systemic uptake. As a reminder, the AUC is concentration integrated over time. Regarding `Cc1cc(C)c(CNC(=O)c2cc(-c3ccc4c(c3)OCCO4)nc3c2cnn3C(C)C)c(=O)[nH]1`, the IC50 in data set [1] was found to be 500 nM. In data set [2], the bioavailability was determined as 0.5%. Moreover, the AUC in data set [3] is 700 ng·h/mL. The molecule further registered a clearance in data set [4] of 24 mL/min/kg. Besides, in data set [5], the Vd came to 1.3 L/kg.
The term solubility denotes the dissolved amount per volume that the medium holds. Take `Cc1cc(C)c(CNC(=O)c2cc(Br)nc3c2cnn3C(C)C)c(=O)[nH]1`: in data set [1], the IC50 came out at 900 nM. Also, in data set [6] (buffer), the solubility entry is “soluble”.
`Cc1cc(C)c(CNC(=O)c2cccc3c2ncn3C(C)C)c(=O)[nH]1` gave an IC50 in data set [1] of over 50000 nM.
Same read-out and setting: with `Cc1cc(C)c(CNC(=O)c2cc(Br)nc3c2cnn3C2CCN(C(=O)OC(C)(C)C)CC2)c(=O)[nH]1` the figure was 200 nM.
Molecule `Cc1cc(C)c(CNC(=O)c2cc(-c3ccc(CN4CCOCC4)cc3)nc3c2cnn3C(C)C)c(=O)[nH]1` showed a bioavailability in data set [2] of 41%. This molecule also returned an AUC in data set [3] of 950 ng·h/mL. This molecule also yielded a clearance in data set [4] of 35 mL/min/kg. The solubility result in data set [6] (buffer) is listed as “soluble”. Further, the Vd in data set [5] came to 1.5 L/kg.
As for `CCN(c1ccc(Cl)c(C(=O)N(C)Cc2c(C)cc(C)[nH]c2=O)c1C)C1CCOCC1`, the IC50 in data set [1] amounted to 200 nM. This counts as sub-micromolar.
On to `Cc1cc(C)c(CNC(=O)c2ccc3cnn(C4CCCC4)c3c2C)c(=O)[nH]1`, for which half-maximal inhibition in data set [1] (IC50) required 6000 nM.
`Cc1cc(C)c(CNC(=O)c2cc(N3CCNCC3)nc3c2cnn3C(C)C)c(=O)[nH]1` displayed an IC50 in data set [1] of 1600 nM. In addition, the solubility result in data set [6] (buffer) is given as “soluble”.
On to `Cc1cc(C)c(CNC(=O)c2cc(Br)nc3c2cnn3C2CCN(C(=O)C(C)(C)C)CC2)c(=O)[nH]1`, for which, in data set [1], it took 50 nM to reach half-maximal inhibition (IC50).
Consider `CCN(c1cc(-c2ccc(CN3CCOCC3)cc2)cc(C(=O)NCc2c(C)cc(C)[nH]c2=O)c1C)C1CCOCC1` [TAZEMETOSTAT], for which the bioavailability in data set [2] was determined as 55%. Moreover, the AUC in data set [3] was found to be 2500 ng·h/mL. In addition, in data set [4], the clearance stood at 13 mL/min/kg. In addition, the Vd in data set [5] was found to be 1 L/kg.
The like results for `Cc1cc(C)c(CNC(=O)c2cc(-c3ccc(CN4CCOCC4)cc3)cc(N(C)C3CCCC3)c2C)c(=O)[nH]1` were, in that order, 24%, 2500 ng·h/mL, 16 mL/min/kg and 0.66 L/kg.
For `Cc1cc(C)c(CNC(=O)c2cc(Br)cc(N(C)C3CCCC3)c2C)c(=O)[nH]1`, in data set [2], the bioavailability stood at 2%. The same molecule showed an AUC in data set [3] of 46 ng·h/mL. Moreover, in data set [4], the clearance worked out at 18 mL/min/kg. Also, the Vd in data set [5] was 0.97 L/kg.
Turning to `COc1cc(C(=O)NCc2c(C)cc(C)[nH]c2=O)c2cnn(C(C)C)c2n1`, the IC50 in data set [1] was 2400 nM. In data set [6] (buffer), the solubility entry was “soluble”.
Molecule `Cc1cc(C)c(CNC(=O)c2cccc3c2cnn3C(C)C)c(=O)[nH]1` yielded an IC50 in data set [1] of 1100 nM.
`Cc1cc(C)c(CNC(=O)c2cc(Br)nc3c2cnn3C2CCOCC2)c(=O)[nH]1` returned an IC50 in data set [1] of 700 nM. This IC50 lies about 1.6-fold lower than the previous one.
Still for that read-out and setting: as for `Cc1cc(C)c(CNC(=O)c2cc(C3=CC(C)(C)NC(C)(C)C3)nc3c2cnn3C)c(=O)[nH]1`, the figure is 39000 nM.
With `Cc1cc(C)c(CNC(=O)c2cc(Br)cc(N(C)C3CCOCC3)c2C)c(=O)[nH]1`, the bioavailability in data set [2] was found to be 18%. Further, the AUC in data set [3] turned out to be 350 ng·h/mL. This molecule yielded a clearance in data set [4] of 90 mL/min/kg. Further, in data set [5], the Vd was determined as 2.7 L/kg.
Regarding `Cc1cc(C)c(CNC(=O)c2ccnc3c2cnn3C(C)C)c(=O)[nH]1`, inhibition in data set [1] was half-maximal at 3100 nM (IC50). Further, in data set [6] (buffer), the solubility result is reported as “soluble”.
`Cc1cc(C)c(CNC(=O)c2ccc3cnn(C(C)C)c3c2)c(=O)[nH]1` registered an IC50 in data set [1] of over 50000 nM.
The molecule `Cc1cc(C)c(CNC(=O)c2cc(-c3ccc(N4CCNCC4)nc3)nc3c2cnn3C(C)C)c(=O)[nH]1` yielded a 50% inhibitory concentration (IC50) in data set [1] of 200 nM. For the same molecule, the solubility entry in data set [6] (buffer) is on record as “soluble”.
Turning to `Cc1cc(C)c(CNC(=O)c2cc(-c3ccc(CN4CCOCC4)cc3)cc3c2cnn3C2CCCC2)c(=O)[nH]1`, the bioavailability in data set [2] is 47%. In data set [3], this molecule gave an AUC of 2900 ng·h/mL. In data set [4], this molecule displayed a clearance of 11 mL/min/kg. In data set [5], the Vd is 0.49 L/kg.
In data set [1], `Cc1cc(C)c(CNC(=O)c2ccc3cnn(C4CCCC4)c3c2)c(=O)[nH]1` had an IC50 of over 50000 nM.
Regarding `CCN(c1cc(Cl)cc(C(=O)NCc2c(C)cc(C)[nH]c2=O)c1)C1CCOCC1`, the IC50 in data set [1] was 14000 nM.
Still for that read-out and setting: with `Cc1cc(C)c(CNC(=O)c2cc(Br)nc3c2cnn3C2CCN(C(=O)N(C)C)CC2)c(=O)[nH]1` the figure was 50 nM.
Still for that read-out and setting: with `Cc1cc(C)c(CNC(=O)c2cc(Br)nc3c2cnn3C2CCNCC2)c(=O)[nH]1` the figure was 2200 nM.
Regarding `Cc1cc(C)c(CNC(=O)c2cc(C)n(C3CCCCC3)c2C)c(=O)[nH]1`, the IC50 in data set [1] amounted to 3400 nM. The solubility in data set [6] (aqueous, read-out: solubility) was under 10 µM.
For the molecule `Cc1cc(C)c(CNC(=O)c2cc(C3=CC(C)(C)NC(C)(C)C3)nc3c2cnn3C(C)C)c(=O)[nH]1`, in data set [1], the IC50 was 300 nM. For the same molecule, the solubility entry in data set [6] (buffer) is “soluble”.
In the case of `Cc1cc(C)c(CNC(=O)c2ccc3c(cnn3C(C)C)c2)c(=O)[nH]1`, in data set [1], the IC50 amounted to 22000 nM.
Same read-out and setting: as for `CCn1ncc2c(C(=O)NCc3c(C)cc(C)[nH]c3=O)cc(C3=CC(C)(C)NC(C)(C)C3)nc21`, the figure is 5000 nM.
In data set [2], `CCN(c1cc(Cl)cc(C(=O)NCc2c(C)cc(C)[nH]c2=O)c1C)C1CCOCC1` yielded a bioavailability of 1.6%. The AUC in data set [3] came to 680 ng·h/mL. The clearance in data set [4] worked out at 49 mL/min/kg. The Vd in data set [5] worked out at 0.45 L/kg.
Molecule `Cc1cc(C)c(CNC(=O)c2cc(C(C)C)nc3c2cnn3C(C)C)c(=O)[nH]1` yielded an IC50 in data set [1] of 2300 nM. For the same molecule, the solubility result in data set [6] (buffer) is on record as “soluble”.
On to `Cc1cc(C)c(CNC(=O)c2cccc3c2ccn3C(C)C)c(=O)[nH]1`, for which the IC50 in data set [1] was 3100 nM.
Regarding `CCN(c1cc(Cl)cc(C(=O)NCc2c(C)cc(C)nc2OC)c1C)C1CCOCC1`, in data set [1], the IC50 was over 10000 nM. For the same molecule, in data set [7], the inhibition entry is “inactive”.
